Values of other authors in patent US20020177585A1, “Uses of targeted oxidative therapeutic formulation in arteriosclerosis” (priority 2001, published 2002).

Tests used:
[1] = tested on: peroxide-sensitive E. coli; details: infused into the blood of infected rabbits
E. coli = details: increasing concentration of peroxide ex-vivo

OO [hydrogen peroxide, Hydrogen peroxide]
bactericidal effect [1]: no bactericidal effect
direct bactericidal activity (E. coli): no evidence of direct bactericidal activity
